Source: patent publication US20150038545A1, “HYDROXYPHENYL PYRROLE COMPOUNDS CONTAINING AN HYDROXAMIC ACID AS HDAC INHIBITORS AND MEDICINAL APPLICATIONS THEREOF” (UNIVERSIDAD DEL PAÍS VASCO, priority 2011, published 2015)

Key:
MIAPaCa-2 = assay: Cancer cell growth inhibition (CellTiter-Glo), MIAPaCa-2; type: cell-based; settings: Homo sapiens, MIA PaCa-2; Pancreatic Cancer, MIAPaCa-2, 72 h treatment
Description: (§1) Cell culture-based assays were used to evaluate the ability of compounds of the invention to inhibit cancer cell growth.
(§2) Cells were obtained from the American Type Culture Collection (ATCC). Cells were cultured at 37° C. with 5% CO2 in the appropriate growth medium (see table below), and harvested respectively during the logarithmic growth period and counted with hemocytometer. The cell viability was examined by trypan blue exclusion. Cell concentrations were adjusted to 5.56×10^4 cells/ml with respective medium.
(§3) Stock solutions of test compounds and positive drugs Doxorubicin (Zhejiang, Haizheng, China), Cisplatin (Nanjing Zhiyao, China) and Mitomycin (Zhejiang, Haizheng, China) were prepared in dimethyl sulphoxide (DMSO) or PBS at 20 mM.
(§4) In order to determine the IC50 for each compound, experiments were carried out in 96-well plates and the cell lines seeded at a density of 5,000 cells/well. […] All treatments were performed in triplicate. 10 μl of drug solution was added to each well and incubated for 72 hours. At the end of the incubation, 100 μl of the CellTiter-Glo Reagent were added to each well and the contents were mixed for 2 munites on an orbital shaker to induce cell lysis. The plate was incubated at room temperature for 10 minutes to stabilize luminiscent signal, and luminiscent was recorded. […] In order to calculate IC50 values, dose-responsive curves were fitted using nonlinear regression model with a sigmoidal dose response.

Bx-PC-3 = assay: Cancer cell growth inhibition (CellTiter-Glo), Bx-PC-3; type: cell-based, Human; settings: Homo sapiens, BXPC-3; Pancreatic Cancer, Bx-PC-3, 72 h treatment
Description: as §1, §2, §3, §4

NCI-H460 = assay: Cancer cell growth inhibition (CellTiter-Glo), NCI-H460; type: cell-based, Human; settings: Homo sapiens; Lung Cancer, NCI-H460, 72 h treatment
Description: as §1, §2, §3, §4

IC50 (MIAPaCa-2) [µM]	IC50 (Bx-PC-3) [µM]	melting point [°C]	IC50 (NCI-H460) [µM]	SMILES
4.08	4.27	224 to 225	9.41	O=C(CCCCCNC(=O)c1[nH]c(-c2ccc(O)cc2)cc1-c1ccccc1)NO [Example 2, N-(6-(hydroxyamino)-6-oxohexyl)-5-(4-hydroxyphenyl)-3-phenyl-1H-pyrrole-2-carboxamide]
2.75	2.68	99 to 100	2.4	O=C(CCCCCNC(=O)c1[nH]c(-c2ccccc2)cc1-c1ccc(O)cc1)NO [Example 1, N-(6-(hydroxyamino)-6-oxohexyl)-3-(4-hydroxyphenyl)-5-phenyl-1H-pyrrole-2-carboxamide]
2.49	2.91	–	9.38	O=C(CCCCCNC(=O)c1[nH]c(-c2ccc(O)cc2)cc1-c1ccsc1)NO [Example 6, N-(5-(hydroxycarbamoyl)pentyl)-5-(4-hydroxyphenyl)-3-(3-thienyl)-1H-pyrrole-2-carboxamide]
1.59	2.42	–	10.9	O=C(CCCCCNC(=O)c1[nH]c(-c2ccc(O)cc2)cc1-c1ccoc1)NO [Example 5, 3-(3-furyl)-N-(5-(hydroxycarbamoyl)pentyl)-5-(4-hydroxy-phenyl)-1H-pyrrole-2-carboxamide]
